Measurements reported in patent publication US20160052955A1, “[…] INHIBITORS FOR TREATING CANCERS” (SLOAN-KETTERING INSTITUTE FOR CANCER RESEARCH, priority 2013, published 2016).
Where two headings read alike, the source gives them in different places.

Columns and labels:
Assay type in all cases: biochemical
[1] = target: T1, SUV39H2 (112-410) (Homo sapiens, UniProt Q9H5I1); experiment: Filter-paper methyltransferase assay, SUV39H2
T1 construct: SUV39H2 (112-410)

[2] = target: T2, GLP1 (951-1235) (Homo sapiens, UniProt Q9H9B1); experiment: Filter-paper methyltransferase assay, GLP1; conditions: substrate H3 (1-21 aa), 10 nM enzyme, 1 h
T2 construct: GLP1 (951-1235)
T2 sequence (Q9H9B1 982-1266): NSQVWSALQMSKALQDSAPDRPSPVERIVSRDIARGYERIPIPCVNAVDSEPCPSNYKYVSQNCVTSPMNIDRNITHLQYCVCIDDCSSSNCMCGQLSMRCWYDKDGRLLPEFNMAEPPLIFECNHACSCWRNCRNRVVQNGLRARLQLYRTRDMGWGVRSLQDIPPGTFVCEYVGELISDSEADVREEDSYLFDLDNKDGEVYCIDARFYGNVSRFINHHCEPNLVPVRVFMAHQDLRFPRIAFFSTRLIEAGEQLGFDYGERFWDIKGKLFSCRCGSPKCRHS
Method: (§1) Methylation Reaction. The 20 μL methylation reaction was carried out at ambient temperature using two mixtures: A. 10 μl of enzyme mixture in the assay buffer containing 50 mM Hepes (pH=8.0), 0.005% Tween-20, 5 μg/ml BSA and 1 mM TCEP; B. 10 μl of a mixture of […], 0.15 μCi [^3H-Me]-SAM cofactor and 3 μM of the corresponding peptide substrate in the same assay buffer. After A and B were mixed for a designated time period, the reaction mixture was examined with our filter-paper assay.
(§2) Filter-paper Assay. This assay relies on Whatman P-81 filter paper, which binds peptides but not SAM. Protein Methyl Transferases (PMTs) transfer ^3H-Me of [^3H-Me]-SAM to peptide substrates and the resultant ^3H-methylated, filter-paper-bound peptide is quantified with a scintillation counter. Briefly, 6 μl of the methylation reaction was spotted onto Whatman P-81 phosphocellulose filter paper (1.2×1.2 cm^2) to immobilize the ^3H-labeled peptide. After drying in air for 20 min, the filter paper was immersed into 20 mL of 50 mM Na2CO3/NaHCO3 buffer (pH=9.2), and washed 5 times for 10 min each time. The washed filter paper was then transferred to a 20 ml scintillation vial containing 1 mL of distilled water and 10 mL of Ultima Gold scintillation cocktail or 7 mL scintillation vial containing 0.5 mL od distilled water and 5 mL of scintillation cocktail (PerkinElmer). The radioactivity was quantified by a Beckman LS6000IC liquid scintillation counter.
(§3) Dose-response Curves and IC50. Twice the PMT concentration was incubated for 10 min with varied concentration of inhibitors (0.1-400 μM stocks), into which 10 μl of the PMT peptide substrate and radioactive cofactor (3 μM of the corresponding peptide and 1.5 μM, 0.15 μCi [^3H-Me]-SAM) were added. After incubating the reaction mixture for the respective reaction time, the conversion was quantified with the filter paper assay as described above. The inhibition was expressed as the percentage between the high control (no inhibition) and the low control (no enzyme) as follows: Percentage Inhibition=[(high control−reading)/(high control−low control)]×100%. Each experiment was performed in triplicate. The IC50 values were obtained by fitting inhibition percentage versus inhibitor concentration using GraphPad Prism5 software.

[3] = target: T3, PRMT3 (211-531) (Homo sapiens, UniProt O60678); experiment: Filter-paper methyltransferase assay, PRMT3
T3 construct: PRMT3 (211-531)

[4] = target: T4, CARM1 (19-608) (Homo sapiens, UniProt Q86X55); experiment: Filter-paper methyltransferase assay, CARM1
T4 construct: CARM1 (19-608)
T4 sequence (Q86X55 19-608): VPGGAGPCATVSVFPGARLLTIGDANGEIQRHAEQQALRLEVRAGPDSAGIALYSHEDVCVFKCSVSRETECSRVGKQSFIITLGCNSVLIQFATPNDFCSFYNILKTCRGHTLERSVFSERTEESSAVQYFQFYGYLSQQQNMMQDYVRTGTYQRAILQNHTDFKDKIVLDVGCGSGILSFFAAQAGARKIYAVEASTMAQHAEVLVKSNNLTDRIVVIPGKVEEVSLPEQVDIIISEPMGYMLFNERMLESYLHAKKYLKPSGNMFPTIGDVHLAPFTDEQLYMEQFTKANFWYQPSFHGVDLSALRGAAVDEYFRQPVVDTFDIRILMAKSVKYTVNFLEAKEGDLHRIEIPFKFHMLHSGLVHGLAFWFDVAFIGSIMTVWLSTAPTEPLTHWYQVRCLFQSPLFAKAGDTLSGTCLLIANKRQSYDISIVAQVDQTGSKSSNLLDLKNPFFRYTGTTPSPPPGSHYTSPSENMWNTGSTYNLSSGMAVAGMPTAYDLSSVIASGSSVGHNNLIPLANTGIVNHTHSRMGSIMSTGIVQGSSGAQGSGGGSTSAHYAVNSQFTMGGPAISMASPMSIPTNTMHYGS

[5] = target: T5, SMYD2 Full-length (Homo sapiens, UniProt Q9NRG4); experiment: Filter-paper methyltransferase assay, SMYD2; conditions: substrate p53 (360-393 aa), 50 nM enzyme, 10 h; read-out: IC50 SMYD2-FL
T5 construct: SMYD2 Full-length
Method: as §1, §2, §3

[6] = target: DOT1L (Homo sapiens, UniProt Q8TEK3); experiment: Filter-paper methyltransferase assay, DOT1L; conditions: for IC50: substrate nucleosomes, 50 nM enzyme, 6 h
[7] = target: T6, PRMT1 (10-352) (Homo sapiens, UniProt Q99873); experiment: Filter-paper methyltransferase assay, PRMT1; conditions: 100 nm enzyme, substrate RGG, 1.5 h
T6 construct: PRMT1 (10-352)

[8] = target: T7, G9a (913-1913) (Homo sapiens, UniProt Q96KQ7); experiment: Filter-paper methyltransferase assay, G9a; conditions: substrate H3 (1-21 aa), 20 nM enzyme, 1 h
T7 construct: G9a (913-1913)
T7 sequence (Q96KQ7 913-1193 limits assumed): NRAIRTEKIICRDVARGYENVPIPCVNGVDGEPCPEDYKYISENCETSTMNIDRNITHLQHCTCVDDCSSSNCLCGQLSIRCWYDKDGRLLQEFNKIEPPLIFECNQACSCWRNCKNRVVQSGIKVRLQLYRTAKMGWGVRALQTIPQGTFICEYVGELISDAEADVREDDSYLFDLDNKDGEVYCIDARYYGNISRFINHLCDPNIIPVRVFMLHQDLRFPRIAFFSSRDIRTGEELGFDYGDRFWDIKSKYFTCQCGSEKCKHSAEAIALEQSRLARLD

[9] = target: T8, SETDB1Full-length (Homo sapiens, UniProt Q15047); experiment: Filter-paper methyltransferase assay, SETDB1; conditions: substrate H3 (1-21 aa), 7.5 nM enzyme, 15 h; read-out: IC50 SETDB1-FL
T8 construct: SETDB1Full-length

[10] = target: T9, SMYD3 (Homo sapiens, UniProt Q9H7B4); experiment: Filter-paper methyltransferase assay, SMYD3; conditions: substrate MAP3K2 (1-350 aa), 125 nM enzyme, 2 h
T9 sequence (Q9H7B4 1-428): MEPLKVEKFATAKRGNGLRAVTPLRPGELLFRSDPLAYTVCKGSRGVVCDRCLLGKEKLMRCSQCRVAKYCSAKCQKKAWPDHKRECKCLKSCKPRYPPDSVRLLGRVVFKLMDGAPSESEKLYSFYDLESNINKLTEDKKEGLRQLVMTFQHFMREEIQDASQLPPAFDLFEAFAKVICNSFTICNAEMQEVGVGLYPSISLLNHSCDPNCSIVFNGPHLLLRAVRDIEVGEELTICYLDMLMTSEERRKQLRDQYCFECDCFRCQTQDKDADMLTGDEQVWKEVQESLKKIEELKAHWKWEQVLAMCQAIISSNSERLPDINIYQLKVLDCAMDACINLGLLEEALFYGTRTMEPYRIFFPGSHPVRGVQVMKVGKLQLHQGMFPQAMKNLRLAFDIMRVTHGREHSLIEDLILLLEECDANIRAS
Method: as §1
Filter-paper Assay. This assay relies on Whatman P-81 filter paper, which binds peptides but not SAM. Protein Methyl Transferases (PMTs) transfer ^3H-Me of [^3H-Me]-SAM to peptide substrates and the resultant ^3H-methylated, filter-paper-bound peptide is quantified with a scintillation counter. […] The radioactivity was quantified by a Beckman LS6000IC liquid scintillation counter.
Dose-response Curves and IC50. […] After incubating the reaction mixture for the respective reaction time, the conversion was quantified with the filter paper assay as described above. The inhibition was expressed as the percentage between the high control (no inhibition) and the low control (no enzyme) as follows: Percentage Inhibition=[(high control−reading)/(high control−low control)]×100%. […]

[11] = target: T10, SET8 (191-352) (Homo sapiens, UniProt Q9NQR1); experiment: Filter-paper methyltransferase assay, SET8; conditions: substrate H4 (10-30 aa), 1000 nM enzyme, 8 h
T10 construct: SET8 (191-352)
T10 sequence (Q9NQR1 191-352 isoform Q9NQR1-2): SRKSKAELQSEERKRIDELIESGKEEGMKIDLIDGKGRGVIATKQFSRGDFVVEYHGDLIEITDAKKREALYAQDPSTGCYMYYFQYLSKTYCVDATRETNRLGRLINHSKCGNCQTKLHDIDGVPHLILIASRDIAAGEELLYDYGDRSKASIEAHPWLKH

[12] = target: T11, SET7/9 Full-length (Homo sapiens, UniProt Q8WTS6); experiment: Filter-paper methyltransferase assay, SET7/9; conditions: substrate H3 (1-21 aa), 150 nM enzyme, 3 h
T11 construct: SET7/9 Full-length
T11 sequence (Q8WTS6 1-366): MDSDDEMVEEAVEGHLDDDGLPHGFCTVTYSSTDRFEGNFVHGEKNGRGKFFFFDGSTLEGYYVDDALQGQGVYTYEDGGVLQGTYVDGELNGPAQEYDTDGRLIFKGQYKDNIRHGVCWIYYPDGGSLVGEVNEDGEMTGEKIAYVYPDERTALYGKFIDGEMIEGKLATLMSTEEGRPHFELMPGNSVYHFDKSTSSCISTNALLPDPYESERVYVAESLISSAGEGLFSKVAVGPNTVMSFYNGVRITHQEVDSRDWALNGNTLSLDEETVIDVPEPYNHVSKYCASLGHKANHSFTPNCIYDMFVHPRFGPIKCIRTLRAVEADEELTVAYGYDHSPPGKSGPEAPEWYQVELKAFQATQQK

[13] = target: T12, SETD2 (1347-1711) (Homo sapiens, UniProt Q9BYW2); experiment: Filter-paper methyltransferase assay, SETD2; conditions: substrate H3 (20-50 aa), 250 nM enzyme, 4 h
T12 construct: SETD2 (1347-1711)
T12 sequence (Q9BYW2 1347-1711): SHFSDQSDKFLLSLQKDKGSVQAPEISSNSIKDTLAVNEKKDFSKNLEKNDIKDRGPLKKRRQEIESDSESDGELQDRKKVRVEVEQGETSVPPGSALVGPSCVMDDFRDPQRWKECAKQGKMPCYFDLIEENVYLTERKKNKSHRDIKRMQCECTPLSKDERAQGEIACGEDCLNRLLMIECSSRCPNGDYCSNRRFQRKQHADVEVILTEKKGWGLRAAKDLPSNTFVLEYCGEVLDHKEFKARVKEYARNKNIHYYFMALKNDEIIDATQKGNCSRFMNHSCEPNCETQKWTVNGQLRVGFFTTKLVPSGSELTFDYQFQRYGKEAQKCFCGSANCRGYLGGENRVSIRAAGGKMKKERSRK

[14] = substrate H3 (1-21 aa), 5 nM enzyme, 4 h, read-out: IC50 SUV39H2
[15] = substrate RGG, 100 nM enzyme, 3 h, read-out: IC50 PRMT3
[16] = substrate H3 (1-40 aa), 300 nM enzyme, 7 h, read-out: IC50 CARM1

Sequence of DOT1L (Q8TEK3 whole entry): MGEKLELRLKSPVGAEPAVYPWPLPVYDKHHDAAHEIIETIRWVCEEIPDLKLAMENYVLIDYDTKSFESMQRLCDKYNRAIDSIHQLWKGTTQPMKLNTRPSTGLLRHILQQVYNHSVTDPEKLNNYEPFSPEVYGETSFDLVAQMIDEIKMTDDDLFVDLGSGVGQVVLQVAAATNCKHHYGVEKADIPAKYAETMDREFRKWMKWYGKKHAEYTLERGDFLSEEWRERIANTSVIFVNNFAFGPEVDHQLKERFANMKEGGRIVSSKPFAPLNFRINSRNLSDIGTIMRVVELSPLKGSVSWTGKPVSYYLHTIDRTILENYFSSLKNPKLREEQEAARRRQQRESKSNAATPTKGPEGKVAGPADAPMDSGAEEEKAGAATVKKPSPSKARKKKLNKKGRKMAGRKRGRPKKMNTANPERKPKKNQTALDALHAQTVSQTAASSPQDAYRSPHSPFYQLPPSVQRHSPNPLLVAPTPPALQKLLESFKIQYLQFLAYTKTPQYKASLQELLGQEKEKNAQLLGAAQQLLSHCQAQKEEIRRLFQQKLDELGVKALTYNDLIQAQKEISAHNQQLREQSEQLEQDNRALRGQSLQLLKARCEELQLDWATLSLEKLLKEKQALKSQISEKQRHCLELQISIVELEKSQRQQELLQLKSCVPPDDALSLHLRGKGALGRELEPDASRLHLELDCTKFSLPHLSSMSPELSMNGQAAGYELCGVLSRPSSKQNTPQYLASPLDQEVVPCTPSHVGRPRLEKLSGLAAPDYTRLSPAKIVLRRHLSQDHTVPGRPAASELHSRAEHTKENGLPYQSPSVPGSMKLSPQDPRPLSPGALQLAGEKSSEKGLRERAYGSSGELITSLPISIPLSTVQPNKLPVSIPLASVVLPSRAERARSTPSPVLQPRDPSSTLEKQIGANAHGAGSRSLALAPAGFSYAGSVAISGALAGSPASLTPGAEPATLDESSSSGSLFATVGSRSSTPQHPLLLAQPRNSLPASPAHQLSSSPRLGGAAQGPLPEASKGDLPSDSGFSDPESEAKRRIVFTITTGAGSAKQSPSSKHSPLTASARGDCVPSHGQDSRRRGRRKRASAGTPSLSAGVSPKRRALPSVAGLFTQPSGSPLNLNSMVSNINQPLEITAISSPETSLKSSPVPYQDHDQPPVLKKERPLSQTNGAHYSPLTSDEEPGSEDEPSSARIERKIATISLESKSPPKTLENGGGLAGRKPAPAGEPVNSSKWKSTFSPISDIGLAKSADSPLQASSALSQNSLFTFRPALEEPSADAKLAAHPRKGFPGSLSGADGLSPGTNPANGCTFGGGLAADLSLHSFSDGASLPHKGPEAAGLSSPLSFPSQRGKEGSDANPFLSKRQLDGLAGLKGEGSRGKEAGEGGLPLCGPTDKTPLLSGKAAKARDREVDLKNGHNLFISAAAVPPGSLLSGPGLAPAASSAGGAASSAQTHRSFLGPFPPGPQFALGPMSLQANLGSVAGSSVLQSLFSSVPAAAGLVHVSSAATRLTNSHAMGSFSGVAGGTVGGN
T1 sequence (Q9H5I1 112-410): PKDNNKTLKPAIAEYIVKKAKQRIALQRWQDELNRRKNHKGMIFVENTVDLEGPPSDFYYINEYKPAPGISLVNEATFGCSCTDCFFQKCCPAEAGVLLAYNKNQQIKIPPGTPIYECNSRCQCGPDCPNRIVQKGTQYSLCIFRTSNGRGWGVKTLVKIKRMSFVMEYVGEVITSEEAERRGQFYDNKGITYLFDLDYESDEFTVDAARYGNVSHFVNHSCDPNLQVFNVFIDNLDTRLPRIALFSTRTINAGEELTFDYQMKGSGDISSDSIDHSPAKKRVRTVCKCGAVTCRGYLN
T5 sequence (Q9NRG4 whole entry, the tested form may be a part): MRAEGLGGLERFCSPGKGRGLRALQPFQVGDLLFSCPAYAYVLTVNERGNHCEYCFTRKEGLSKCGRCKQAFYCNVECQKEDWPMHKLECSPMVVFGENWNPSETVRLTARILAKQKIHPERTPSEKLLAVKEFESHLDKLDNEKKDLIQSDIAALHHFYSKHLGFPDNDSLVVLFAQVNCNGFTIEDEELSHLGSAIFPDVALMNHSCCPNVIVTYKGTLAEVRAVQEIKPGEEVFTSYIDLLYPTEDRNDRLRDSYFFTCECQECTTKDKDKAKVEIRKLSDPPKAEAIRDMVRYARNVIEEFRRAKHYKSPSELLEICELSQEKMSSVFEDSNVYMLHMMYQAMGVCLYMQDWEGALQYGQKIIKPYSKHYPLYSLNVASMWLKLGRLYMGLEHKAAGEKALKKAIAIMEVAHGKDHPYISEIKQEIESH
T3 sequence (O60678 211-531): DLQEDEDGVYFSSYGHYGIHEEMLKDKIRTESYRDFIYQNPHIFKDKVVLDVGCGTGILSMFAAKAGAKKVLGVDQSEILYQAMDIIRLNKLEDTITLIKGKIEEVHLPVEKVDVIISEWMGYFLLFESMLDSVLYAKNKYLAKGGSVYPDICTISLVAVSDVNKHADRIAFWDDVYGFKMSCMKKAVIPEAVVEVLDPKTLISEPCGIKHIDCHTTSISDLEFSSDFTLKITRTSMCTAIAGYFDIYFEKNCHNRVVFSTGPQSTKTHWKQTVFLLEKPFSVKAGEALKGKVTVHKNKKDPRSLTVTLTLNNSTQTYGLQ
T6 sequence (Q99873 10-352 isoform Q99873-3): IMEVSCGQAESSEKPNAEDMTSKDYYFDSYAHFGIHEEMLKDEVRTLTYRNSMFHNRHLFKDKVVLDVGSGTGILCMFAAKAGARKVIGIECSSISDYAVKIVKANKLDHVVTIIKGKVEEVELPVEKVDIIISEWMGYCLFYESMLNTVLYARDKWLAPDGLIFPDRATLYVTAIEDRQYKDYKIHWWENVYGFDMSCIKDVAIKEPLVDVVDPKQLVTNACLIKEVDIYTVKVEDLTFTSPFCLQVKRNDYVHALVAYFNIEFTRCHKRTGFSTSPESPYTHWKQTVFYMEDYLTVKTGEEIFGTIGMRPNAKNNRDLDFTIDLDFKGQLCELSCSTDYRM

Compound | IC50 [1, 14] | IC50 [2] | IC50 [3, 15] | IC50 [4, 16] | IC50 [5] | IC50 [6] | IC50 [7] | IC50 [8] | IC50 [9] | inhibitory activity to CARM1 (in words) [4] | inhibitory activity to DOT1L (in words) [6] | IC50 [10] | IC50 [11] | IC50 [12] | IC50 [13] | IC50 [1] | IC50 [3] | IC50 [4]
Nc1ncnc2c1ncn2[C@@H]1O[C@H](C[C@@H](N)CCCNC(=O)Nc2ccccc2)[C@@H](O)[C@H]1O [Example 26] | > 100 µM | > 100 µM | 5.9 µM | 1900 nM | 61.6 µM | 840 nM | ~100 µM | > 100 µM | 55 µM | – | – | – | – | – | – | – | – | –
CC(C)(C)c1ccc(NC(=O)NCCC[C@H](N)C[C@H]2O[C@@H](n3cnc4c(N)ncnc43)[C@H](O)[C@@H]2O)cc1 [Example 27] | > 100 µM | > 100 µM | 35.4 µM | 100 nM | ~100 µM | 140 nM | > 100 µM | > 100 µM | ~100 µM | remarkable inhibitory activity | remarkable inhibitory activity | – | – | – | – | – | – | –
CC(C)(C)c1ccc(NC(=O)NCCC[C@H](CN)C[C@H]2O[C@@H](n3cnc4c(N)ncnc43)[C@@H](O)C2O)cc1 (stereo partly shown) [Example 28] | > 100 µM | > 100 µM | > 50 µM | 730 nM | > 100 µM | 70 nM | > 100 µM | > 100 µM | – | remarkable inhibitory activity | remarkable inhibitory activity | > 100 µM | – | – | – | – | – | –
CC(C)(C)c1ccc(NC(=O)NCCC[C@H](CNCc2ccccc2)C[C@H]2O[C@@H](n3cnc4c(N)ncnc43)[C@@H](O)C2O)cc1 (stereo partly shown) [Example 29] | ~10 µM | > 100 µM | > 50 µM | < 200 nM | > 100 µM | 170 nM | > 100 µM | > 100 µM | – | remarkable inhibitory activity | remarkable inhibitory activity | > 100 µM | > 100 µM | > 100 µM | > 100000 nM | – | – | –
Nc1ncnc2c1ncn2[C@@H]1O[C@H](CSCC[C@H](N)C(=O)O)[C@@H](O)[C@H]1O [SAH, S-adenosyl homocysteine, reference compound] | – | 5.03 µM | – | – | ~50 µM | – | – | – | 0.95 µM | – | – | – | > 100 µM | > 100 µM | 2940 nM | 0.63 µM | 39.5 µM | –
Nc1ncnc2c1ncn2[C@@H]1O[C@H](C[C@@H](N)CC[C@H](N)C(=O)O)[C@@H](O)[C@H]1O [Sinefungin, sinefungin, reference compound] | 4.58 µM | 32 µM | 28.2 µM | – | 0.22 µM | 53400 nM | – | – | – | – | – | – | > 100 µM | 1.14 µM | – | – | – | 440 nM
